Columns and labels:
[1] = reported incidences vary widely amongst studies; cited from earlier work
[2] = tested on: cisplatin-induced hearing loss (CIHL); settings: cited from earlier work; for patients in whom CIHL was seen: 61 patients treated with STS (intravenous), 64 with cisplatin alone, p=0.00022; for overall survival: children with disseminated disease, additional intravenous STS vs cisplatin alone, p=0.009
[3] = tested on: cisplatin-induced hearing loss (CIHL); test: Phase 1 trial of transtympanic STS gel: audiometry (pure tone averages) for efficacy against cisplatin-induced hearing loss; assay type: in vivo, human; settings: for Δ PTA 0.5-1-2 kHz (posttreatment − baseline) / Δ PTA 1-2-4 kHz (posttreatment − baseline) / Δ PTA 8-10-12.5 kHz (posttreatment − baseline): STS-treated ears; for difference in ΔPTA3 in favour of the untreated ear: last non-responder
Protocol: Arm A was a single-blind, placebo controlled, proof-of-concept study. A different application method was investigated in arm B, which was a non-blinded, non-placebo controlled, proof of concept arm. The ear to be treated with the transtympanic STS gel was assigned by randomisation in both arms. The study was performed at the Netherlands Cancer Institute in Amsterdam, the Netherlands. The protocol was approved by the institutional medical research ethics committee. The study is registered with the European Clinical Trials Database (EudraCT) (EudraCT: 2012-004653-80). […] Exclusion criteria were: known symptomatic brain or leptomeningeal metastases and relevant otological history (e.g. conductive hearing loss, vertigo). All patients gave written informed consent prior to start of study procedures. The ear to be treated with the transtympanic STS gel was assigned by randomisation in both arm A and arm B. Arm A concerned a single-blind study protocol in which the contralateral ear was treated with a placebo gel. Arm B was non-blinded and the contralateral ear was left untreated. The enrolment of patients was done by a treating physician. Randomisation was done via a randomisation program at the institutional trial centre. […] In arm B only the STS gel was prepared. Syringes with study medication were warmed up to body temperature (37° C.) for 30 minutes in an incubator ([…], Switzerland) to prevent hypo- or hypercaloric symptoms during or after injections. The syringe was connected to the (Braun, […]) needle via a 10 cm infusion line (BD Becton Dickenson connecta). […] To approach the eardrum in a perpendicular orientation. In arm A, the gels were administered through a […] grommet, which was placed for venting air to prevent barotrauma and/or pain while injecting. During this procedure we noticed there was backflow of the gel via the infusion needle backward into the external ear canal. Therefore, a different protocol for the transtympanic injection was chosen in arm B for the next 6 patients: the grommet was still placed in the anterior eardrum for ventilation of the middle ear, however, the STS gel was injected via the needle directly through the posterior part of the eardrum and indeed backflow into the external ear was not seen anymore. Topical anesthesia was applied using a few small (3×3 mm) gauzes with xylocaine 10% (lidocaine 100 mg/ml, AstraZeneca, United Kingdom) applied on the eardrum before placement of the grommet and the injections. During the injections, the patient was lying in a hospital bed with the upper body positioned 30 degrees upwards. After administration of the gel the patients head was turned 45 degrees contralateral. […] The specific positioning of the patient was in our view needed to for improved and/or prolonged exposure of the STS gel to the round window of the middle ear. […] If concomitant chemotherapy or radiotherapy was to be administered, this was done as per local protocol. […] Standard audiometry including air conduction (AC) and bone conduction (BC) thresholds was performed in a sound proof booth using the Decos Audiology Workstation. […] Six evaluable patients per study arm were considered sufficient to reach proof of concept based on the intra-patient comparison and the expected audiometric difference between the STS-treated and untreated/placebo treated ears. […] To study whether there was a significant difference in CIHL over time ([…]) between the STS ears and the untreated ears, the […] with paired samples was used.

[4] = guinea pigs; cited from earlier work
[5] = tested on: cisplatin-induced hearing loss (CIHL); settings: cited from earlier work
[6] = in vivo; cited from earlier work
[7] = tested on: cisplatin-induced hearing loss; settings: transtympanic STS gel (0.5 M, 0.1 ml, 24 hours prior to cisplatin); 13 patients; 3 to 10 kHz; not significant; cited from earlier work

Structure (SMILES): N.N.[Cl][Pt][Cl] [Cisplatin, cis-diaminedichloroplatinum(II)]
- occurrence of cisplatin-induced hearing loss in cisplatin-treated patients [1]: 75-80%
- patients in whom CIHL was seen [2]: 56%
- overall survival [2]: 84%

Structure (SMILES): O=S([O-])([O-])=S.[Na+].[Na+] [STS, sodium thiosulfate]
- Δ PTA 0.5-1-2 kHz (posttreatment − baseline) ([3]; 4 patients with ototoxicity who responded to STS-gel): −0.4 dB HL
- Δ PTA 1-2-4 kHz (posttreatment − baseline) ([3]; 4 responders): −0.4 dB HL
- Δ PTA 8-10-12.5 kHz (posttreatment − baseline) ([3]; 4 responders): 6.8 dB SPL
- occurrence of SNHL (ΔPTA3 ≥10 dB), STS-treated versus untreated ears ([3]; 12 STS-treated ears vs 12 untreated ears, McNemar p=0.125): no statistically significant difference
- Δ PTA 1-2-4 kHz (posttreatment − baseline) ([3]; all 12 patients): 2.5 dB HL
- Δ PTA 8-10-12.5 kHz (posttreatment − baseline) ([3]; all 12 patients): 8.8 dB SPL
- ΔPTA3 (8-10-12.5 kHz), overall ([3]; all 12 patients, STS-treated ears (untreated ears 12.7 dB)): 8.8 dB
- Δ PTA 0.5-1-2 kHz (posttreatment − baseline) ([3]; all 12 patients, directly after last cisplatin cycle minus baseline): 2.1 dB HL
- ΔPTA3 ([3]; four non-responders, STS-treated ears (untreated ears 15.2 dB)): 14.3 dB
- mean ΔPTA3 ([3]; four responders, STS-treated ears (untreated ears 25.2 dB)): 6.8 dB
- difference in ΔPTA3 between STS-treated ears and untreated ears ([3]; four responders, in favour of STS-treated ear, range 11.7-33.3 dB): 18.4 dB
- difference in ΔPTA3 in favour of the untreated ear ([3]; at follow-up audiometry): 2.3 dB SPL
- difference in ΔPTA3 in favour of the untreated ear ([3]; directly after treatment): 10.0 dB SPL
- difference in ΔPTA3 between ears ([3]; three of the four non-responders): < 10 dB SPL
- patients in whom CIHL was seen [2]: 29%
- overall survival [2]: 45%
- perilymph STS concentrations, transtympanic injections compared with intravenous infusion [4]: higher
- adverse events likely attributed to intravenous STS administration ([5]; children): tumour progression and grade 3 infection, neutropenia, electrolyte disorders and anaemia
- relative risk of CIHL ([5]; intravenous STS, 95% confidence interval 0.33-0.81): 52%
- reduction of the incidence of CIHL versus cisplatin alone ([5]; intravenous STS, 109 children, p=0.002): 48%
- oral bio-availability [6]: poor
- averaged hearing loss less in STS-treated ears than in untreated ears [7]: 1.3 dB
